In article PMC5423977, “Safety, pharmacokinetics, and pharmacodynamics of BMS-986142, a novel reversible BTK inhibitor, in healthy participants” (European Journal of Clinical Pharmacology, 2017):
Like-named read-outs stand apart in the source and are kept apart here.

What was measured:
[1] = Effect of BMS-986142 on single-dose plasma PK of MTX (DDI); type: in vivo, human; conditions: BMS-986142 350 mg QD, MTX 7.5 mg single dose
Experimental: (§1) Blood samples for the measurement of BMS-986142 were collected up to 168 h after dosing of BMS-986142 on day 1 for participants in SAD. In MAD, blood samples were collected up to 24 h on day 1 and up to 120 h on day 14 (the last day of treatment). Blood samples for the measurement of MTX were collected up to 48 h after dosing of MTX on days 1 and 8.
(§2) Plasma samples were analyzed for BMS-986142 levels with a validated method using liquid chromatography tandem mass spectrometry (LC-MS/MS) detection. The analyte was extracted from 50 μL of plasma using a liquid–liquid extraction method. Methyl tert-butyl ether was used as the extraction solvent. The lower limit of quantification (LLOQ) was 1.00 ng/mL in plasma. Plasma samples were analyzed for methotrexate levels using LC-MS/MS detection. Analytes were isolated from 50 μL plasma through solid phase extraction using Waters Oasis MAX, 10-mg, 96-well SPE plates. The final extract was analyzed using LC-MS/MS detection. LLOQ was 1.00 ng/mL in plasma. Detailed methodology quantitating the concentration level of BMS-986142 and MTX is provided in Online Resource 10.
(§3) Individual subject pharmacokinetic parameters for BMS-986142 and MTX were derived by a non-compartmental method using validated PK software (WinNonLin version 6.3; Pharsight Corporation, Mountain View, CA, USA). The following PK parameters for BMS-986142 and MTX were derived from plasma concentration versus time data: maximum observed plasma concentration (Cmax); minimum observed plasma concentration (Cmin); time to maximum observed plasma concentration (Tmax); area under the plasma concentration-time curve from time zero to the time of the last quantifiable concentration (AUC(0-T)), from time zero extrapolated to infinite time (AUC(inf)), and in one dosing interval (AUC(TAU)); terminal plasma half-life (T1/2); and AUC accumulation index (AI_AUC). AI_AUC was calculated to divide AUC(TAU) on day 14 by AUC(TAU) on day 1.
Statistical analyses were conducted to assess the effect of coadministration of BMS-986142 on the PK of MTX. For all treatment comparisons, a linear mixed-effect model was fitted to the log-transformed PK parameters Cmax, AUC(0-T), and AUC(inf). Point estimates and 90% CIs for differences on the log-scale were exponentiated to obtain estimates for geometric mean ratios (GMRs) and respective 90% CIs on the original scale. Sample size determination is based on consideration of the precision of the estimate of the GMRs of AUCs of MTX with and without BMS-986142. With 9 evaluable subjects, there will be an 80% probability that the 90% CI of AUC(INF) GMR will be within 89.9 to 111.2% of the point estimate. These precision estimates are based on an assumption that Cmax and AUC(INF) of MTX are log-normally distributed with intrasubject CV of 14.67 and 10.38%, respectively, as calculated from Namour et al..

[2] = Plasma pharmacokinetics of BMS-986142, MAD; type: in vivo, human; conditions: for AI_AUC geometric mean (%CV): MAD; for AI_AUC geometric mean (%CV) / AUC / Cmax / concentration at 14 day / Tmax / half-life: n = 6; for AUC / Cmax / concentration at 14 day / Tmax / half-life: human, plasma, oral; for AUC: read-out: AUC(TAU) geometric mean (%CV); for Cmax: read-out: Cmax geometric mean (%CV); for concentration at 14 day: read-out: Cmin geometric mean (%CV); for Tmax: read-out: Tmax median (min, max); for half-life: read-out: T1/2 mean (SD) (converted)
Experimental: Eligible participants were confined to the clinical facility (WCCT Global, LLC, Cypress, CA) the day before dosing (day −1) and randomized to receive SAD or MAD treatment under fasting conditions for 10 h. In the SAD group, eight healthy non-Japanese participants were assigned to each of up to six sequential dose panels (single oral doses of 5, 15, 50, 100, 300, and 900 mg BMS-986142) or placebo. Within each dose panel, participants were randomized in a 3:1 ratio to receive BMS-986142 (n = 6) or placebo (n = 2). In the MAD group, eight healthy non-Japanese participants were assigned to each of four sequential dose panels (daily oral doses of 25, 75, 200, and 350 mg BMS-986142) or placebo. Within each dose panel, participants were randomized in a 3:1 ratio to receive once-daily (QD) doses of BMS-986142 or placebo from day 1 to day 14 (Online Resource 1). Escalation to the next dose level in SAD and MAD was conducted after safety assessment had been completed and the treatment was considered safe and well tolerated. Additionally, dose levels in MAD were selected not to exceed the steady-state exposure of BMS-986142 (AUC: 22,920 ng h/mL) at NOAEL in rats obtained from a 1-month GLP toxicology study.
as §1, §2, §3
Summary statistics were tabulated for all PK parameters by treatment and study days. Geometric mean (Gmean) and coefficient of variation (CV) are presented for Cmax, AUC(0-T), AUC(inf), AI_AUC, Cmin, and AUC(TAU); arithmetic mean and standard deviation (SD) are presented for T1/2; and median and range are presented for Tmax. Dose proportionality was assessed using the previously described power model. Briefly, the simple linear regression was applied to the natural log of the PK parameters on the natural log of dose using the following equation (Eq. 1).1 ElogPKParameterDose=α+β∗logDose.
A slope (β) equal to 1 would indicate perfect dose proportionality. For each PK parameter (Cmax, AUC(0-T), AUC(TAU), and AUC(inf)), point estimates and 90% CI of the slopes were calculated.

[3] = both sexes, MAD day 14, 25 mg QD

For `Cc1c(-c2c(F)cc(C(N)=O)c3[nH]c4c(c23)CC[C@H](C(C)(C)O)C4)cccc1-n1c(=O)c2cccc(F)c2n(C)c1=O` [BMS-986142, 6-fluoro-5-(R)-(3-(S)-(8-fluoro-1-methyl-2,4-dioxo-1,2-dihydroquinazolin-3(4H)-yl)-2-methylphenyl)-2-(S)-(2-hydroxypropan-2-yl)-2,3,4,9-tetrahydro-1H-carbazole-8-carboxamide], the “Effect on the pharmacokinetics of MTX” value [1] was “did not affect the pharmacokinetics of MTX”, the “Accumulation (accumulation index for AUC)” value ([2]; MAD 25-350 mg QD) was “minimal to modest accumulation” and the “AI_AUC geometric mean (%CV)” value ([2]; AUC(TAU) day 14 / day 1, 25 mg QD) was 1.57 (22). For the same molecule, the “AI_AUC geometric mean (%CV)” value ([2]; AUC(TAU) day 14 / day 1, 75 mg QD) was 1.23 (31), the “AI_AUC geometric mean (%CV)” value ([2]; AUC(TAU) day 14 / day 1, 200 mg QD) was 1.23 (40) and the “AI_AUC geometric mean (%CV)” value ([2]; AUC(TAU) day 14 / day 1, 350 mg QD) was 0.984 (32). For the same molecule, the AUC [2, 3] was 539 ng·h/mL, the Cmax [2, 3] was 56 ng/mL and the concentration at 14 day [2, 3] was 7.85 ng/mL. For the same molecule, the Tmax [2, 3] was 2 h, the half-life ([2]; MAD day 14, 25 mg QD) was 10.9 h and the AUC ([2]; MAD day 14, 75 mg QD) was 2470 ng·h/mL. For the same molecule, the Cmax ([2]; MAD day 14, 75 mg QD) was 281 ng/mL, the concentration at 14 day ([2]; MAD day 14, 75 mg QD) was 27.9 ng/mL and the half-life ([2]; MAD day 14, 75 mg QD) was 10.7 h. For the same molecule, the Tmax ([2]; MAD day 14, 75 mg QD) was 2 h, the AUC ([2]; MAD day 14, 200 mg QD) was 5530 ng·h/mL and the Cmax ([2]; MAD day 14, 200 mg QD) was 592 ng/mL. For the same molecule, the concentration at 14 day ([2]; MAD day 14, 200 mg QD) was 67.6 ng/mL, the half-life ([2]; MAD day 14, 200 mg QD) was 11 h and the Tmax ([2]; MAD day 14, 200 mg QD) was 2 h. For the same molecule, the AUC ([2]; MAD day 14, 350 mg QD) was 10700 ng·h/mL, the Cmax ([2]; MAD day 14, 350 mg QD) was 1020 ng/mL and the concentration at 14 day ([2]; MAD day 14, 350 mg QD) was 166 ng/mL. It also gave a half-life ([2]; MAD day 14, 350 mg QD) of 10.2 h and a Tmax ([2]; MAD day 14, 350 mg QD) of 1.5 h.
